Here are results for 1 substance from US20040043914A1, “Sustained release antimicrobial composition including a partially halogenated hydantoin and a colorant” (LONZA INC., priority 2002, published 2004).

The nature of the data set: Total chlorine yield upon dissolution. Format: physicochemical. An excerpt:
The partially halogenated hydantoin is preferably monochloro-5,5-dimethyl hydantoin (MCDMH). MCDMH yields about 43% of its weight in total chlorine upon dissolution.

For the substance “monochloro-5,5-dimethyl hydantoin [MCDMH]”, the “total chlorine yielded upon dissolution” value is given as “about 43 % of its weight”.
